This is an account of results in patent US7910750B2, “Artemisinin (qinghaosu) derivatives, their preparation methods and their use, and pharmaceutical compositions containing the same” (Shanghai Institute of Materia Medica, Chinese Academy of …, priority 2005, dated 2011).

Series [1] concerns BALB/c mouse spleen cells. The series can be described thus: Lymphocytotoxicity test (MTT). As to conditions: mouse spleen cells, 48 hours, read-out: Lymphocytotoxicity CC50. The format is cell-based. Here is the method:
A. Lymphocytotoxicity Test
1. BALB/c mice were killed by cervical dislocation, and their spleens were removed aseptically. A single spleen cell suspension was prepared and cell debris and clumps were removed.
2. 80 μL cell suspension, 40 μL testing sample, 40 μL medium containing 10% FBS were added into 96 well plate; for the control group, 80 μL medium was added the total volume was 160 μL, and blank control group was set.
3. After incubated in 5% CO2 incubator at 37° C. for 48 hours, 16 μL MTT (5 mg/mL) reagent was added into each well 6-7 hours before the termination of the incubation.

A further series relates to T lymphocyte. The series is described as follows: Lymphocyte proliferation test, T lymphocyte proliferation response induced by ConA ([3H]-thymidine). As to conditions: mouse spleen cells, ConA, 48 hours; read-out: Inhibiting activity of T lymphocyte proliferation response induced by ConA IC50. It counts as cell-based, mouse. How it is done: B. Lymphocyte Proliferation Test […] […] 3. After incubated in 5% CO2 incubator at 37° C. for 48 hours, 0.5 μCi [^3H]-thymidine (25 μL/well) was added into each well 7-8 hours before the termination of the incubation. 4.

The test system of a further series is B lymphocyte. The series can be described thus: Lymphocyte proliferation test, B lymphocyte proliferation response induced by LPS ([3H]-thymidine). As to conditions: mouse spleen cells, LPS, 48 hours; read-out: Inhibiting activity of B lymphocyte proliferation response induced by LPS IC50. It counts as cell-based, mouse. Here is the method: 3. After incubated in 5% CO2 incubator at 37° C. for 48 hours, 0.5 μCi [^3H]-thymidine (25 μL/well) was added into each well 7-8 hours before the termination of the incubation. 4.

With `COc1ccccc1OC(=O)C(C)Oc1cccc(OC2OC3OC4(C)CCC5C(C)CCC(C2C)C35OO4)c1` (stereo not drawn) [compound 27, o-methoxy-phenyl 2-[3-(12β-Artemisininoxy)phenoxy] propionate], the CC50 in series [1] came out at 2.99 µM. The IC50 in the series on T lymphocyte stood at 4.12 µM; with B lymphocyte, 570 nM.
For `CCOC(=O)CNC(=O)c1ccc(OC2OC3OC4(C)CCC5C(C)CCC(C2C)C35OO4)cc1` (stereo not drawn) [compound 5, ethyl-[4-(12β-artemisininoxy)benzoyl] aminoacetate], in that order: 39 µM, 2.53 µM and 160 nM.
`CCOC(=O)C(C)Oc1ccc(OC2OC3OC4(C)CCC5C(C)CCC(C2C)C35OO4)cc1` (stereo not drawn) [compound 24, ethyl 2-[4-(12β-artemisininoxy)phenoxy] propionate]: in series [1], the CC50 worked out at 17.6 µM. The IC50 in the series with T lymphocyte was found to be 0.26 µM; in the series on B lymphocyte, 850 nM.
On the same counts, the results for `CC(Oc1ccc(OC2OC3OC4(C)CCC5C(C)CCC(C2C)C35OO4)cc1)C(=O)O` (stereo not drawn) [compound 25, 2-[4-(12β-artemisininoxy)phenoxy] propanoic acid] are 24.3 µM, 7.27 µM and 860 nM.
On the same counts, the results for `COC(=O)Cc1ccc(OC2OC3OC4(C)CCC5C(C)CCC(C2C)C35OO4)cc1` (stereo not drawn) [compound 1, methyl 4-(12β-artemisininoxy)phenyl acetate] are 8 µM, 0.713 µM and 179 nM.
On the same counts, the results for `COc1ccccc1OC(=O)C(C)Oc1cccc(OC2OC3OC4(C)CCC5C(C)CCC(C2C)C35OO4)c1` (stereo not drawn) [compound 30, o-methoxy-phenyl 2-[3-(12α-artemisininoxy)phenoxy] propionate] are 8.23 µM, 5.73 µM and 820 nM.
For the compound `CCOC(=O)C(C)Oc1cccc(OC2OC3OC4(C)CCC5C(C)CCC(C2C)C35OO4)c1` (stereo not drawn) [compound 28, ethyl 2-[3-(12α-artemisininoxy)phenoxy] propionate], the CC50 in series [1] turned out to be 2.99 µM. The IC50 with T lymphocyte is 3.59 µM; in the series on B lymphocyte, 560 nM.
For `CC1CCC2C(C)C(Oc3ccc(CC(=O)O)cc3)OC3OC4(C)CCC1C32OO4` (stereo not drawn) [compound 2, 4-(12β-artemisininoxy)phenyl acetic acid], in that order: 100 µM, 11.8 µM and 10200 nM.
For `C[C@H]1[C@H](OC(=O)CCC(=O)O)O[C@@H]2O[C@@]3(C)CC[C@H]4[C@H](C)CC[C@@H]1[C@@]24OO3` [artesunate, reference compound], the CC50 in series [1] amounted to 86 µM. The IC50 with T lymphocyte is 3.82 µM.
As to `COc1ccccc1OC(=O)C(C)c1ccc(OC2OC3OC4(C)CCC5C(C)CCC(C2C)C35OO4)cc1` (stereo not drawn) [compound 23, o-methoxy-phenyl 2-[4-(12β-artemisininoxy)phenyl] propionate], in series [1], the cytotoxic concentration (CC50) was 5.33 µM. The values for the IC50 with T lymphocyte and in the series with B lymphocyte were 0.527 µM and 94.7 nM, respectively.
For `CC(Oc1cccc(OC2OC3OC4(C)CCC5C(C)CCC(C2C)C35OO4)c1)C(=O)O` (stereo not drawn) [compound 29, 2-[3-(12α-artemisininoxy)phenoxy] propanoic acid], in that order: 35.1 µM, 8.6 µM and 740 nM.
For `CC1CCC2C(C)C(Oc3ccc(OCC(=O)OCCN(C)C)cc3)OC3OC4(C)CCC1C32OO4` (stereo not drawn) [compound 4, dimethylaminoethyl-[4-(12β-artemisininoxy)phenoxy] acetate], in that order: 2.08 µM, 1.96 µM and 49.6 nM.
On the same counts, the results for `COc1ccccc1OC(=O)C(C)Oc1ccc(OC2OC3OC4(C)CCC5C(C)CCC(C2C)C35OO4)cc1` (stereo not drawn) [compound 26, o-methoxy-phenyl 2-[4-(12β-artemisininoxy)phenoxy] propionate] are 39.1 µM, 2.33 µM and 270 nM.
Regarding `CC(C(=O)O)c1ccc(OC2OC3OC4(C)CCC5C(C)CCC(C2C)C35OO4)cc1` (stereo not drawn) [compound 22, 2-[4-(12β-artemisininoxy)phenyl] propanoic acid], the 50% cytotoxic concentration (CC50) in series [1] is 59.6 µM. Also, the IC50 was found to be 3.6 µM in the series on T lymphocyte and 8600 nM in the series with B lymphocyte.
For `COC(=O)C(C)c1ccc(OC2OC3OC4(C)CCC5C(C)CCC(C2C)C35OO4)cc1` (stereo not drawn) [compound 21, methyl 2-[4-(12β-artemisininoxy)phenyl] propionate], in that order: 7.8 µM, 0.064 µM and 160 nM.
